Where a name gives a salt, the structure may show the parent alone.

For the assay, the target named is T1, HCV polymerase (Hepatitis C virus genotype 1b, UniProt P26663).
T1 construct: a region encoding NS5B (J Virol 1991 March, 65(3), 1105-13, 544 amino acids after deletion of 47 amino acids on the C-terminal); 6xHis (C); made in house; host or cells: Escherichia coli
T1 sequence (P26663 2420-2963): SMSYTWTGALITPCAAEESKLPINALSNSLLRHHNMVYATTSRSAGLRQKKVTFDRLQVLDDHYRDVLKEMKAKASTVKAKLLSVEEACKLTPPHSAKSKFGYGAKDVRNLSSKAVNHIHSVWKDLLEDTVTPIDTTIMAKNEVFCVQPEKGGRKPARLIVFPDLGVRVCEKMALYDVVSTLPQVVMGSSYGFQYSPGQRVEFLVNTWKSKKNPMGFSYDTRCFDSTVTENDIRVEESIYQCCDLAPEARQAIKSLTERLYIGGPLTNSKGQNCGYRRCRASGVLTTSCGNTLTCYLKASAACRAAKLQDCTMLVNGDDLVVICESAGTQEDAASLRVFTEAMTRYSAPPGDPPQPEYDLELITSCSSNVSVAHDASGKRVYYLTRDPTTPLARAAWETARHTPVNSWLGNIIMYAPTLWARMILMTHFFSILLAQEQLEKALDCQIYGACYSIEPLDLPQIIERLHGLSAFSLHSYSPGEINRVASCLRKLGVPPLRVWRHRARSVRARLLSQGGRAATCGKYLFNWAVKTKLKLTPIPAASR
Nature of the assay: biochemical. Also noted: species or system HCV BK strain. An outline of the steps: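 His-tagged NS5B (BK strain, 47-aa C-terminal deletion, E. coli-expressed) at 0.5 μg/ml copied 5 μg/ml run-off RNA bearing the HCV 3′ UTR with 2 μM UTP plus [3H]UTP, 50 μM ATP/GTP, in pH 7.5 Tris with 5 mM MgCl2, 25 °C, 90 min. TCA-precipitated RNA was counted and IC50 calculated.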
`Cc1ccc2c(c1)N(CCCN1CCCCC1)CCn1c-2c(C2CCCCC2)c2ccc(C(=O)O)cc21` [Example 1-298, 13-cyclohexyl-3-methyl-5-[3-(piperidin-1-yl)propyl]-6,7-dihydro-5H-benzo[5,6][1,4]diazepino[7,1-a]indole-10-carboxylic acid dihydrochloride] gave an IC50 of less than 100 nM.
In the case of `Cc1ccc2c(c1)N(CCCN1CCCC1)CCn1c-2c(C2CCCCC2)c2ccc(C(=O)O)cc21` [Example 1-299, 13-cyclohexyl-3-methyl-5-[3-(pyrrolidin-1-yl)propyl]-6,7-dihydro-5H-benzo[5,6][1,4]diazepino[7,1-a]indole-10-carboxylic acid dihydrochloride], the concentration for half-maximal inhibition (IC50) was less than 100 nM.
The same measure for `Cc1ccc2c(c1)N(CCCN1CCCCCC1)CCn1c-2c(C2CCCCC2)c2ccc(C(=O)O)cc21` [Example 1-300, 5-[3-(azepan-1-yl)propyl]-13-cyclohexyl-3-methyl-6,7-dihydro-5H-benzo[5,6][1,4]diazepino[7,1-a]indole-10-carboxylic acid dihydrochloride]: less than 100 nM.
Next, `Cc1ccc2c(c1)N(CCCN(C)C)CCn1c-2c(C2CCCCC2)c2ccc(C(=O)O)cc21` [Example 1-301, 13-cyclohexyl-5-(3-dimethylaminopropyl)-3-methyl-6,7-dihydro-5H-benzo[5,6][1,4]diazepino[7,1-a]indole-10-carboxylic acid dihydrochloride]: less than 100 nM.
In turn, `CCN(CC)CCCN1CCn2c(c(C3CCCCC3)c3ccc(C(=O)O)cc32)-c2ccc(Cl)cc21` [Example 1-302, 3-chloro-13-cyclohexyl-5-(3-diethylaminopropyl)-6,7-dihydro-5H-benzo[5,6][1,4]diazepino[7,1-a]indole-10-carboxylic acid dihydrochloride] returned an IC50 of less than 100 nM.
`CSc1ccc2c(c1)N(CCN1CCCC1)CCn1c-2c(C2CCCCC2)c2ccc(C(=O)O)cc21` [Example 1-303, 13-cyclohexyl-3-methylsulfanyl-5-[2-(pyrrolidin-1-yl)ethyl]-6,7-dihydro-5H-benzo[5,6][1,4]diazepino[7,1-a]indole-10-carboxylic acid dihydrochloride] had an IC50 of less than 100 nM.
As for `COCC1CCCCN1CCN1CCn2c(c(C3CCCCC3)c3ccc(C(=O)O)cc32)-c2ccc(Cl)cc21` (stereo not shown) [Example 1-304, 3-chloro-13-cyclohexyl-5-[2-(2-methoxymethylpiperidin-1-yl)ethyl]-6,7-dihydro-5H-benzo[5,6][1,4]diazepino[7,1-a]indole-10-carboxylic acid dihydrochloride], the IC50 is less than 100 nM.
Take `COCC1CCCCN1CCN1CCn2c(c(C3CCCCC3)c3ccc(C(=O)O)cc32)-c2ccc(C)cc21` (stereo not shown) [Example 1-305, 13-cyclohexyl-5-[2-(2-methoxymethylpiperidin-1-yl)ethyl]-3-methyl-6,7-dihydro-5H-benzo[5,6][1,4]diazepino[7,1-a]indole-10-carboxylic acid dihydrochloride]: the IC50 was less than 100 nM.
`COCCC1CCCN(CCN2CCn3c(c(C4CCCCC4)c4ccc(C(=O)O)cc43)-c3ccccc32)C1` (stereo not shown) [Example 1-306, 13-cyclohexyl-5-{2-[3-(2-methoxyethyl)piperidin-1-yl]ethyl}-6,7-dihydro-5H-benzo[5,6][1,4]diazepino[7,1-a]indole-10-carboxylic acid dihydrochloride] displayed an IC50 of less than 100 nM.
Next, `COCCC1CCCN(CCN2CCn3c(c(C4CCCCC4)c4ccc(C(=O)O)cc43)-c3ccc(Cl)cc32)C1` (stereo not shown) [Example 1-307, 3-chloro-13-cyclohexyl-5-{2-[3-(2-methoxyethyl)piperidin-1-yl]ethyl}-6,7-dihydro-5H-benzo[5,6][1,4]diazepino[7,1-a]indole-10-carboxylic acid dihydrochloride]: less than 100 nM; `COCCC1CCCN(CCN2CCn3c(c(C4CCCCC4)c4ccc(C(=O)O)cc43)-c3ccc(C)cc32)C1` (stereo not shown) [Example 1-308, 13-cyclohexyl-5-{2-[3-(2-methoxyethyl)piperidin-1-yl]ethyl}-3-methyl-6,7-dihydro-5H-benzo[5,6][1,4]diazepino[7,1-a]indole-10-carboxylic acid dihydrochloride]: less than 100 nM; `CN(C)CCN1CCn2c(c(C3CCCCC3)c3ccc(C(=O)O)cc32)-c2ccc(OCc3cc(S(C)(=O)=O)ccc3N3CCOCC3)cc21` [Example 1-309, 13-cyclohexyl-5-(2-dimethylaminoethyl)-3-[5-methanesulfonyl-2-(morpholin-4-yl)benzyloxy]-6,7-dihydro-5H-benzo[5,6][1,4]diazepino[7,1-a]indole-10-carboxylic acid trihydrochloride]: less than 100 nM.
As for `COC(=O)Oc1ccc2c(c1)N(CCN(C)C)CCn1c-2c(C2CCCCC2)c2ccc(C(=O)O)cc21` [Example 1-310, 13-cyclohexyl-5-(2-dimethylaminoethyl)-3-methoxycarbonyloxy-6,7-dihydro-5H-benzo[5,6][1,4]diazepino[7,1-a]indole-10-carboxylic acid dihydrochloride], the concentration for half-maximal inhibition (IC50) is less than 100 nM.
The same measure for `CN(C)CCN1CCn2c(c(C3CCCCC3)c3ccc(C(=O)O)cc32)-c2ccc(Oc3ccccc3)cc21` [Example 1-311, 13-cyclohexyl-5-(2-dimethylaminoethyl)-3-phenoxy-6,7-dihydro-5H-benzo[5,6][1,4]diazepino[7,1-a]indole-10-carboxylic acid dihydrochloride]: less than 100 nM; for `CN1CCCCC1CCN1CCn2c(c(C3CCCCC3)c3ccc(C(=O)O)cc32)-c2ccc(Cl)cc21` (stereo not shown) [Example 1-312, 3-chloro-13-cyclohexyl-5-[2-(1-methylpiperidin-2-yl)ethyl]-6,7-dihydro-5H-benzo[5,6][1,4]diazepino[7,1-a]indole-10-carboxylic acid dihydrochloride]: less than 100 nM.
Turning to `COCC1CCN(CCN2CCn3c(c(C4CCCCC4)c4ccc(C(=O)O)cc43)-c3ccc(Cl)cc32)CC1` [Example 1-314, 3-chloro-13-cyclohexyl-5-[2-(4-methoxymethylpiperidin-1-yl)ethyl]-6,7-dihydro-5H-benzo[5,6][1,4]diazepino[7,1-a]indole-10-carboxylic acid dihydrochloride], the IC50 was less than 100 nM.
As to `COCC1CCN(CCN2CCn3c(c(C4CCCCC4)c4ccc(C(=O)O)cc43)-c3ccc(C)cc32)CC1` [Example 1-315, 13-cyclohexyl-5-[2-(4-methoxymethylpiperidin-1-yl)ethyl]-3-methyl-6,7-dihydro-5H-benzo[5,6][1,4]diazepino[7,1-a]indole-10-carboxylic acid dihydrochloride], the IC50 was less than 100 nM.
`COC[C@H]1CCCN1CCN1CCn2c(c(C3CCCCC3)c3ccc(C(=O)O)cc32)-c2ccccc21` [Example 1-316, 13-cyclohexyl-5-[2-((R)-2-methoxymethylpyrrolidin-1-yl)ethyl]-6,7-dihydro-5H-benzo[5,6][1,4]diazepino[7,1-a]indole-10-carboxylic acid dihydrochloride] yielded an IC50 of less than 100 nM.
The same measure for `CCN1CCC(OCCN2CCn3c(c(C4CCCCC4)c4ccc(C(=O)O)cc43)-c3ccc(Cl)cc32)CC1` [Example 1-317, 3-chloro-13-cyclohexyl-5-[2-(1-ethylpiperidin-4-yloxy)ethyl]-6,7-dihydro-5H-benzo[5,6][1,4]diazepino[7,1-a]indole-10-carboxylic acid dihydrochloride]: less than 100 nM.
Next, `CC(C)N1CCC(OCCN2CCn3c(c(C4CCCCC4)c4ccc(C(=O)O)cc43)-c3ccc(Cl)cc32)CC1` [Example 1-318, 3-chloro-13-cyclohexyl-5-[2-(1-isopropylpiperidin-4-yloxy)ethyl]-6,7-dihydro-5H-benzo[5,6][1,4]diazepino[7,1-a]indole-10-carboxylic acid dihydrochloride]: less than 100 nM; `CN(CCN1CCn2c(c(C3CCCCC3)c3ccc(C(=O)O)cc32)-c2ccccc21)C1CCCC1` [Example 1-319, 13-cyclohexyl-5-[2-(N-cyclopentyl-N-methylamino)ethyl]-6,7-dihydro-5H-benzo[5,6][1,4]diazepino[7,1-a]indole-10-carboxylic acid]: less than 100 nM; `CC1CCCN(CCCN2CCn3c(c(C4CCCCC4)c4ccc(C(=O)O)cc43)-c3ccc(Cl)cc32)C1` (stereo not shown) [Example 1-320, 3-chloro-13-cyclohexyl-5-[3-(3-methylpiperidin-1-yl)propyl]-6,7-dihydro-5H-benzo[5,6][1,4]diazepino[7,1-a]indole-10-carboxylic acid]: less than 100 nM.
The same measure for `CN(CCN1CCn2c(c(C3CCCCC3)c3ccc(C(=O)O)cc32)-c2ccccc21)C1CCOC1` (stereo not shown) [Example 1-321, 13-cyclohexyl-5-{2-[N-methyl-N-(tetrahydrofuran-3-yl)amino]ethyl}-6,7-dihydro-5H-benzo[5,6][1,4]diazepino[7,1-a]indole-10-carboxylic acid]: less than 100 nM.
For the molecule `CC1CCCCN1CCCN1CCn2c(c(C3CCCCC3)c3ccc(C(=O)O)cc32)-c2ccc(Cl)cc21` (stereo not shown) [Example 1-322, 3-chloro-13-cyclohexyl-5-[3-(2-methylpiperidin-1-yl)propyl]-6,7-dihydro-5H-benzo[5,6][1,4]diazepino[7,1-a]indole-10-carboxylic acid], the IC50 is less than 100 nM.
The same measure for `CCN1CCCCC1CCN1CCn2c(c(C3CCCCC3)c3ccc(C(=O)O)cc32)-c2ccc(Cl)cc21` (stereo not shown) [Example 1-323, 3-chloro-13-cyclohexyl-5-[2-(1-ethylpiperidin-2-yl)ethyl]-6,7-dihydro-5H-benzo[5,6][1,4]diazepino[7,1-a]indole-10-carboxylic acid dihydrochloride]: less than 100 nM.

What is called IC50 is the concentration at which inhibition is half-maximal. Low readings indicate greater potency in that assay, high ones weaker potency in that assay.

The values above are taken from patent US20070049593A1 (priority 2004, published 2007).
